In patent US20200147070A1, “INDUCING PHOSPHOLIPIDOSIS FOR ENHANCING THERAPEUTIC EFFICACY” (Nextcea Inc., priority 2017, published 2020):

Assays:
cathepsin-B = target: T1, cathepsin-B (Rattus norvegicus, UniProt P00787); experiment: Fluorescence-based cathepsin-B activity assay (RR-AFC substrate) in liver and spleen homogenates of treated rats; assay type: in vivo, Sprague-Dawley rats
T1 construct: from tissue; host or cells: liver and spleen homogenates of Sprague-Dawley rats
Experimental: Cathepsin-B is a lysosomal protease that plays an important role in intracellular proteolysis. […] Liver and spleen homogenates were analyzed using a fluorescence-based assay that utilized the preferred cathepsin-B substrate sequence RR labeled with amino-4-trifluoromethyl coumarin (AFC). Samples that contain cathepsin-B cleave the synthetic substrate RR-AFC to release free AFC.

di-22:6-BMP = experiment: PL biomarker di-22:6-BMP in tissues and urine; assay type: in vivo, Sprague-Dawley rats; details: 2 weeks; for PL biomarker di-22:6-BMP in tissues (PL induced in both treatment groups): amiodarone 150 mg/kg/day alone or co-administered with fluoxetine 10 mg/kg/day, heart, liver, kidney, lung; for di-22:6-BMP biomarker in various tissues (PL induced): fluoxetine 10 mg/kg/day alone or co-administered with amiodarone 150 mg/kg/day
[1] = amiodarone 150 mg/kg/day co-administered with fluoxetine 10 mg/kg/day, 2 weeks, vs amiodarone alone
From the text: Heart, liver, kidney and lung tissues were collected at necropsy at 2 weeks.

liver, kidney, and heart = experiment: Electron microscopic examination of tissue sections for phospholipidosis, 2-week repeat dose study; assay type: in vivo, Sprague-Dawley rats; details: co-administered bedaquiline 60 mg/kg/day and citalopram 70 mg/kg/day, 2 weeks
Experimental: FIG. 3 is a set of electron micrographs depicting the accumulation of lysosomal myeloid bodies, indicative of PL, in rat tissues. Sprague-Dawley rats received once daily oral (PO) co-administration of bedaquiline (60 mg/kg/day) and citalopram (70 mg/kg/day) for 2 weeks.
Sprague-Dawley rats were co-administered bedaquiline (60 mg/kg/day) and citalopram (70 mg/kg/day) in a 2-week repeat dose study. Tissue sections (liver, kidney, and heart) were collected at 2 weeks for electron microscopic examination and PL biomarker/proteomic evaluation.

cathepsin B1 = cathepsin B1 (Rattus norvegicus, UniProt P00787); details: Wibo and Poole 1974; cited from earlier work
[2] = Fluoxetine tissue concentrations, alone or co-administered with amiodarone; assay type: in vivo, Sprague-Dawley rats; details: fluoxetine 10 mg/kg/day co-administered with amiodarone 150 mg/kg/day, 2 weeks; tissues including brain
From the text: FIG. 8 is a set of graphs showing that PL-induction increased drug tissue concentrations to enhance in vivo drug efficacy.
PL was induced as indicated by an increase in the di-22:6-BMP biomarker in various tissues.

T1 sequence (P00787 80-333): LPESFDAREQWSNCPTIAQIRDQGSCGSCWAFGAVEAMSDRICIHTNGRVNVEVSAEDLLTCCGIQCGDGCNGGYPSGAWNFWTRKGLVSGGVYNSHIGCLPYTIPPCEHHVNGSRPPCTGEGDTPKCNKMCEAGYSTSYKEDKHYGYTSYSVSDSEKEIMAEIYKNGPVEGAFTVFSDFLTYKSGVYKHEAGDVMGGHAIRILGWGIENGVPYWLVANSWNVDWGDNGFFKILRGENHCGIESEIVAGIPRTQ
cathepsin B1, sequence (P00787 80-333): as above

CCCCc1oc2ccccc2c1C(=O)c1cc(I)c(OCCN(CC)CC)c(I)c1 [amiodarone]
activity of cathepsin B in rat liver and spleen (cathepsin-B; PL induced by amiodarone): slowed
levels of free AFC in tissues compared to controls (cathepsin-B activity) (cathepsin-B; amiodarone 150 mg/kg/day, 2 weeks, liver and spleen homogenates): lower
PL biomarker di-22:6-BMP in tissues (PL induced in both treatment groups) (di-22:6-BMP): increase
di-22:6-BMP biomarker in various tissues (PL induced) (di-22:6-BMP): increase
concentration of amiodarone in the lung tissue [1]: decreased

COc1nc2ccc(Br)cc2cc1[C@@H](c1ccccc1)[C@@](O)(CCN(C)C)c1cccc2ccccc12 [bedaquiline]
biomarker di-22:6-BMP in rat tissues and urine (di-22:6-BMP; co-administered bedaquiline 60 mg/kg/day and citalopram 70 mg/kg/day): increase
multi-lamellar lysosomal inclusions and electron dense deposits (indicative of drug-induced PL) (liver, kidney, and heart): treatment-dependent increase

CCN(CC)CCCC(C)Nc1ccnc2cc(Cl)ccc12 (centres unmarked) [chloroquine]
cathepsin B1 activities (cathepsin B1): inhibited

CNCCC(Oc1ccc(C(F)(F)F)cc1)c1ccccc1 (centres unmarked) [fluoxetine]
fluoxetine concentrations in tissues, compared to fluoxetine alone [2]: increased
PL biomarker di-22:6-BMP in tissues (PL induced in both treatment groups) (di-22:6-BMP): increase
di-22:6-BMP biomarker in various tissues (PL induced) (di-22:6-BMP): increase
